Data from the NIST ThermoML archive (doi:10.1016/j.fluid.2017.03.012).
Numbers after ± are expanded uncertainties.

Assays:
[1] = for Normal melting temperature: DTA; for Triple point temperature: Crystal 2, DSC
[2] = Molar enthalpy of transition or fusion; settings: DSC

SMILES | Normal melting temperature ([1]; Crystal) [°C] | Molar enthalpy of transition or fusion ([2]; Crystal) [kcal/mol] | Normal melting temperature ([1]; Crystal 1) [°C] | Triple point temperature [1] [K] | Molar enthalpy of transition or fusion ([2]; Crystal 1) [kcal/mol] | Molar enthalpy of transition or fusion ([2]; Crystal 2) [kcal/mol]
c1ccc(-c2ccccc2)cc1 [biphenyl] | 68.0 ± 0.53 | 4.66 ± 0.574 | – | – | – | –
CCCCCCCCCCCCCCCCCCCCCCCC [tetracosane] | – | – | 48.06 ± 0.53 | 319.35 ± 0.81 | 14.6 ± 1.77 | 8.08 ± 0.98
CCCCCCCCCCCCCCCCCCCC [eicosane] | 35.03 ± 0.53 | 17.3 ± 2.1 | – | – | – | –
CCCCCCCCCCCCCCCCCCO [1-octadecanol] | – | – | 56.2 ± 0.53 | 319.35 ± 0.81 | 12.4 ± 1.51 | 6.54 ± 0.789
CCCCCCCCCCCCCCCCCCCCO [1-eicosanol] | 63.8 ± 0.53 | 17 ± 2.08 | – | – | – | –
